Assays:
Type in all cases: ADME, cell-based, Bos taurus
Conditions in all cases: cattle, c6, 24 h
[1] = Permeability across BBMEC cocultured with rat C6 cell BBB model after 24 hrs in presence of 0.1 ug/ml TNF
[2] = Permeability across BBMEC co-cultured with rat C6 cell BBB model after 24 hrs in presence of 0.01 ug/ml interleukin-1
[3] = Permeability across BBMEC cocultured with rat C6 cell BBB model after 24 hrs in presence of 0.1 ug/ml interleukin-2
[4] = Permeability across BBMEC cocultured with rat C6 cell BBB model after 24 hrs in presence of 1 ug/ml lipopolysaccharide
[5] = Permeability across BBMEC cocultured with rat C6 cell BBB model after 24 hrs in presence of 0.1 ug/ml lipopolysaccharide
[6] = Permeability across BBMEC cocultured with rat C6 cell BBB model after 24 hrs in presence of 0.1 ug/ml lipoteichoic acid
[7] = Permeability across BBMEC cocultured with rat C6 cell BBB model after 24 hrs in presence of 1 ug/ml Dexamethasone
[8] = Permeability across BBMEC cocultured with rat C6 cell BBB model after 24 hrs in presence of 0.1 ug/ml Dexamethasone
[9] = Permeability across BBMEC cocultured with rat C6 cell BBB model after 24 hrs in presence of 0.01 ug/ml tacrolimus-506
[10] = Permeability across BBMEC cocultured with rat C6 cell BBB model after 24 hrs in presence of 0.1 ug/ml tacrolimus-506
[11] = Permeability across BBMEC cocultured with rat C6 cell BBB model after 24 hrs in presence of 0.01 ug/ml TNF

Measured: permeability

OC(Cn1cncn1)(Cn1cncn1)c1ccc(F)cc1F [FLUCONAZOLE]
permeable: all assays above

From ChEMBL document CHEMBL1240370, “Effects of immunomodulatory and organism-associated molecules on the permeability of an in vitro blood-brain barrier model to amphotericin B and fluconazole” (Antimicrob Agents Chemother, 2010)
